Experimental data published in patent US20220348595A1, “COMPOUNDS AND METHODS FOR THE TARGETED DEGRADATION OF ESTROGEN RECEPTORS” (Endotarget Inc., priority 2021, published 2022).
Where two headings read alike, the source gives them in different places.

Key:
Assay type in all cases: cell-based
[1] = target: T1, ERα (Homo sapiens, UniProt P03372); test: ER degradation in MCF-7 cells (Western blot); details: for DC50: ER degradation, 24 hours
T1 construct: endogenous in cells; host or cells: MCF-7
T1 sequence (P03372 1-595): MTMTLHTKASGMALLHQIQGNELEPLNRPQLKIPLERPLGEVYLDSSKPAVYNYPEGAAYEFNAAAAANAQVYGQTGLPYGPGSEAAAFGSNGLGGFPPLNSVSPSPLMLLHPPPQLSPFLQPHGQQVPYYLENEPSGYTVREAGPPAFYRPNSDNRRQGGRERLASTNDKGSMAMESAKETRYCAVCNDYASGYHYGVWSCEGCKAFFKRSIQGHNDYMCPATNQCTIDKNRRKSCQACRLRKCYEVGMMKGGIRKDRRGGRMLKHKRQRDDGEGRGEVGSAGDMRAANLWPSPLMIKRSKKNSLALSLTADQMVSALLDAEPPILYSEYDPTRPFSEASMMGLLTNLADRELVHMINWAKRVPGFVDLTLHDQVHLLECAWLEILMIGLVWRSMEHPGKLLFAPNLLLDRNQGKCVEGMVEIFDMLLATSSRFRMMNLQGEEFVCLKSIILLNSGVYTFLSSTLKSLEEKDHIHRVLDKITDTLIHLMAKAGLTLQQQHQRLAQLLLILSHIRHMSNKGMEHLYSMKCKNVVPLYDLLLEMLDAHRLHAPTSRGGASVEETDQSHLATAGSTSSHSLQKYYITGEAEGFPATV
Summary of the method: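 MCF-7 cells treated with a range of compound concentrations for 24 hours, then lysed; 50 μg protein probed for ERα by Western blot with infrared imaging. DC50 is concentration giving 50% ER reduction; Dmax is the highest percentage reduction over the range tested.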

[2] = system: MCF-7 breast cancer cells; test: MCF-7 proliferation / cell viability assay; details: MCF-7 proliferation with 0.1 nM 17-beta estradiol, read-out: IC50 (anti-proliferation)
Summary of the method: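 MCF-7 cells in 5% FBS DMEM were exposed for 5 days to compound at 6 doses from 10^−10 M to 10^−5 M, with DMSO as vehicle. Viable cells were counted by Coulter counter. Survival ratio = treated/vehicle viable cell number, vehicle set to 100%.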

[3] = target: T2, ER (Homo sapiens, UniProt P03372); test: ER antagonism (T47D ERE luciferase), T47d-kb-Luc cells; details: read-out: IC50 (ER antagonistm)
T2 construct: endogenous in cells; host or cells: T47d-kb-Luc (T47D stably transfected with a luciferase reporter gene only)
T2 sequence (P03372 1-595): T1 sequence (P03372 1-595)
Summary of the method: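 Stably transfected T47d-kb-Luc human breast cancer cells were used, and antagonism was measured as inhibition of estradiol-driven activity. Data were normalised to the estradiol control. Five concentrations were tested in quadruplicate across at least three experiments.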

[4] = MCF7, Maximal ER degradation, read-out: Dmax

| SMILES | DC50 [1] [nM] | Dmax [1, 4] [%] | IC50 ([2]; Homo sapiens, MCF7) [nM] | IC50 [3] [nM] | Dmax ([1]; Maximal ER degradation) | IC50 [2] [nM] |
| --- | --- | --- | --- | --- | --- | --- |
| CC/C(=C(\c1ccc(OCCN2CCN(C(=O)N3CCN(c4ccc5c(c4)CN(C4CCC(=O)NC4=O)C5=O)CC3)CC2)cc1)c1ccc(B(O)O)cc1)c1ccccc1 (stereo not drawn) [Compound 86, (E)-(4-(1-(4-(2-(4-(4-(2-(2,6-dioxopiperidin-3-yl)-1-oxoisoindolin-5-yl)piperazine-1-carbonyl)piperazin-1-yl)ethoxy)phenyl)-2-phenylbut-1-en-1-yl)phenyl)boronic acid] | < 10 | > 90 | < 10 | < 10 | – | – |
| CC/C(=C(\c1ccc(OCCN2CCN(C(=O)N3CCN(c4ccc5c(c4)CN([C@H]4CCC(=O)NC4=O)C5=O)CC3)CC2)cc1)c1ccc(B(O)O)cc1)c1ccccc1 [Compound 87, (S,E)-(4-(1-(4-(2-(4-(4-(2-(2,6-dioxopiperidin-3-yl)-1-oxoisoindolin-5-yl)piperazine-1-carbonyl)piperazin-1-yl)ethoxy)phenyl)-2-phenylbut-1-en-1-yl)phenyl)boronic acid] | < 10 | > 90 | < 10 | < 10 | – | – |
| CC/C(=C(\c1ccc(OCCN2CCN(C(=O)N3CCN(c4ccc5c(c4)CN([C@@H]4CCC(=O)NC4=O)C5=O)CC3)CC2)cc1)c1ccc(B(O)O)cc1)c1ccccc1 [Compound 88] | < 10 | > 90 | < 10 | < 10 | – | – |
| CC/C(=C(\c1ccc(O)cc1)c1ccc(OCCN2CCN(C(=O)N3CCC(CN4CCN(c5ccc6c(c5)CN(C5CCC(=O)NC5=O)C6=O)CC4)CC3)CC2)cc1)c1ccccc1 (stereo not drawn) [Compound 89] | < 10 | – | – | < 10 | A (A -> 90%) | < 10 |
| CC/C(=C(/c1ccc(O)cc1)c1ccc(OCCN2CCN(C(=O)N3CCC(CN4CCN(c5ccc6c(c5)CN(C5CCC(=O)NC5=O)C6=O)CC4)CC3)CC2)cc1)c1ccccc1 (stereo not drawn) [Compound 90, (E)-3-(5-(4-((1-(4-(2-(4-(1-(4-hydroxyphenyl)-2-phenylbut-1-en-1-yl)phenoxy)ethyl)piperazine-1-carbonyl)piperidin-4-yl)methyl)piperazin-1-yl)-1-oxoisoindolin-2-yl)piperidine-2,6-dione] | < 10 | > 90 | < 10 | < 10 | – | – |
| CC/C(=C(/c1ccc(OCCN2CCN(C(=O)N3CCC(CN4CCN(c5ccc6c(c5)CN(C5CCC(=O)NC5=O)C6=O)CC4)CC3)CC2)cc1)c1ccc(B(O)O)cc1)c1ccccc1 (stereo not drawn) [Compound 91, (Z)-(4-(1-(4-(2-(4-(4-((4-(2-(2,6-dioxopiperidin-3-yl)-1-oxoisoindolin-5-yl)piperazin-1-yl)methyl)piperidine-1-carbonyl)piperazin-1-yl)ethoxy)phenyl)-2-phenylbut-1-en-1-yl)phenyl)boronic acid] | < 10 | > 90 | < 10 | < 10 | – | – |
| CC/C(=C(\c1ccc(OCCN2CCN(C(=O)N3CCC(CN4CCN(c5ccc6c(c5)CN(C5CCC(=O)NC5=O)C6=O)CC4)CC3)CC2)cc1)c1ccc(B(O)O)cc1)c1ccccc1 (stereo not drawn) [Compound 92, (E)-(4-(1-(4-(2-(4-(4-((4-(2-(2,6-dioxopiperidin-3-yl)-1-oxoisoindolin-5-yl)piperazin-1-yl)methyl)piperidine-1-carbonyl)piperazin-1-yl)ethoxy)phenyl)-2-phenylbut-1-en-1-yl)phenyl)boronic acid] | < 10 | > 90 | < 10 | < 10 | – | – |
| CC/C(=C(\c1ccc(O)cc1)c1ccc(OCCN2CCN(C(=O)N3CCC(N4CCN(c5ccc6c(c5)CN(C5CCC(=O)NC5=O)C6=O)CC4)CC3)CC2)cc1)c1ccccc1 (stereo not drawn) [Compound 93, (Z)-3-(5-(4-(1-(4-(2-(4-(1-(4-hydroxyphenyl)-2-phenylbut-1-en-1-yl)phenoxy)ethyl)piperazine-1-carbonyl)piperidin-4-yl)piperazin-1-yl)-1-oxoisoindolin-2-yl)piperidine-2,6-dione] | 10 to 50 | > 90 | < 10 | < 10 | – | – |
| CC/C(=C(\c1ccc(O)cc1)c1ccc(N2CCN(C(=O)N3CCN(c4ccc5c(c4)CN([C@H]4CCC(=O)NC4=O)C5=O)CC3)CC2)cc1)c1ccccc1 [Compound 98] | 10 to 50 | – | – | < 10 | A (A -> 90%) | 10 to 50 |

Continued, in another order:

| DC50 [1] [nM] | Dmax [1, 4] [%] | IC50 ([2]; Homo sapiens, MCF7) [nM] | IC50 [3] [nM] | SMILES | Dmax ([1]; Maximal ER degradation) | IC50 [2] [nM] |
| --- | --- | --- | --- | --- | --- | --- |
| 10 to 50 | > 90 | < 10 | < 10 | CC/C(=C(/c1ccc(O)cc1)c1ccc(OCCN2CCN(C(=O)N3CCC(N4CCN(c5ccc6c(c5)CN(C5CCC(=O)NC5=O)C6=O)CC4)CC3)CC2)cc1)c1ccccc1 (stereo not drawn) [Compound 94, (E)-3-(5-(4-(1-(4-(2-(4-(1-(4-hydroxyphenyl)-2-phenylbut-1-en-1-yl)phenoxy)ethyl)piperazine-1-carbonyl)piperidin-4-yl)piperazin-1-yl)-1-oxoisoindolin-2-yl)piperidine-2,6-dione] | – | – |
| 10 to 50 | > 90 | < 10 | < 10 | CC/C(=C(/c1ccc(OCCN2CCN(C(=O)N3CCC(N4CCN(c5ccc6c(c5)CN(C5CCC(=O)NC5=O)C6=O)CC4)CC3)CC2)cc1)c1ccc(B(O)O)cc1)c1ccccc1 (stereo not drawn) [Compound 95] | – | – |
| 10 to 50 | > 90 | < 10 | < 10 | CC/C(=C(\c1ccc(OCCN2CCN(C(=O)N3CCC(N4CCN(c5ccc6c(c5)CN(C5CCC(=O)NC5=O)C6=O)CC4)CC3)CC2)cc1)c1ccc(B(O)O)cc1)c1ccccc1 (stereo not drawn) [Compound 96, (E)-(4-(1-(4-(2-(4-(4-(4-(2-(2,6-dioxopiperidin-3-yl)-1-oxoisoindolin-5-yl)piperazin-1-yl)piperidine-1-carbonyl)piperazin-1-yl)ethoxyl)phenyl)-2-phenylbut-1-en-1-yl)phenyl)boronic acid] | – | – |
| 10 to 50 | > 90 | 10 to 50 | < 10 | CC/C(=C(\c1ccc(O)cc1)c1ccc(N2CCN(C(=O)N3CCN(c4ccc5c(c4)CN(C4CCC(=O)NC4=O)C5=O)CC3)CC2)cc1)c1ccccc1 (stereo not drawn) [Compound 97, (E)-3-(5-(4-(4-(4-(1-(4-hydroxyphenyl)-2-phenylbut-1-en-1-yl)phenyl)piperazine-1-carbonyl)piperazin-1-yl)-1-oxoisoindolin-2-yl)piperidine-2,6-dione] | – | – |
| 10 to 50 | > 90 | 10 to 50 | < 10 | CC/C(=C(\c1ccc(O)cc1)c1ccc(N2CCN(C(=O)N3CCN(c4ccc5c(c4)CN([C@@H]4CCC(=O)NC4=O)C5=O)CC3)CC2)cc1)c1ccccc1 [Compound 99, (R,E)-3-(5-(4-(4-(4-(1-(4-hydroxyphenyl)-2-phenylbut-1-en-1-yl)phenyl)piperazine-1-carbonyl)piperazin-1-yl)-1-oxoisoindolin-2-yl)piperidine-2,6-dione] | – | – |
| < 10 | > 90 | 10 to 50 | < 10 | CC/C(=C(/c1ccc(O)cc1)c1ccc(N2CCN(C(=O)N3CCN(c4ccc5c(c4)CN(C4CCC(=O)NC4=O)C5=O)CC3)CC2)cc1)c1ccccc1 (stereo not drawn) [Compound 100] | – | – |
| < 10 | > 90 | 10 to 50 | < 10 | CC/C(=C(/c1ccc(O)cc1)c1ccc(N2CCN(C(=O)N3CCN(c4ccc5c(c4)CN([C@H]4CCC(=O)NC4=O)C5=O)CC3)CC2)cc1)c1ccccc1 [Compound 101, (S,Z)-3-(5-(4-(4-(4-(1-(4-hydroxyphenyl)-2-phenylbut-1-en-1-yl)phenyl)piperazine-1-carbonyl)piperazin-1-yl)-1-oxoisoindolin-2-yl)piperidine-2,6-dione] | – | – |
| < 10 | > 90 | 10 to 50 | < 10 | CC/C(=C(/c1ccc(O)cc1)c1ccc(N2CCN(C(=O)N3CCN(c4ccc5c(c4)CN([C@@H]4CCC(=O)NC4=O)C5=O)CC3)CC2)cc1)c1ccccc1 [Compound 102, (R,Z)-3-(5-(4-(4-(4-(1-(4-hydroxyphenyl)-2-phenylbut-1-en-1-yl)phenyl)piperazine-1-carbonyl)piperazin-1-yl)-1-oxoisoindolin-2-yl)piperidine-2,6-dione] | – | – |
| < 10 | > 90 | < 10 | < 10 | CC/C(=C(\c1ccc(B(O)O)cc1)c1ccc(N2CCN(C(=O)N3CCN(c4ccc5c(c4)CN(C4CCC(=O)NC4=O)C5=O)CC3)CC2)cc1)c1ccccc1 (stereo not drawn) [Compound 103, (Z)-(4-(1-(4-(4-(4-(2-(2,6-dioxopiperidin-3-yl)-1-oxoisoindolin-5-yl)piperazine-1-carbonyl)piperazin-1-yl)phenyl)-2-phenylbut-1-en-1-yl)phenyl)boronic acid] | – | – |
